Measurements reported in ChEMBL document CHEMBL4270495, “Oleanane-, ursane-, and quinone methide friedelane-type triterpenoid derivatives: Recent advances in cancer treatment” (Eur J Med Chem, 2017).

Key:
[1] = system: HepG2; test: Cytotoxicity in human HepG2 cells assessed as reduction in cell viability incubated for 24 hrs by MTT assay; format: functional, cell-based; conditions: HepG2, 24 h
[2] = system: MCF7; test: Cytotoxicity in human MCF7 cells assessed as reduction in cell viability; format: functional, cell-based
[3] = system: SGC-7901; test: Cytotoxicity in human SGC7901 cells assessed as reduction in cell viability incubated for 48 hrs by MTT assay; format: functional, cell-based; conditions: SGC-7901, 48 h
[4] = system: HepG2; test: Cytotoxicity in human HepG2 cells assessed as reduction in cell viability incubated for 48 hrs by MTT assay; format: functional, cell-based; conditions: HepG2, 48 h
[5] = system: HeLa; test: Cytotoxicity in human HeLa cells assessed as reduction in cell viability incubated for 48 hrs by MTT assay; format: functional, cell-based
[6] = system: A-375; test: Cytotoxicity in human A375 cells assessed as reduction in cell viability incubated for 24 hrs by MTT assay; format: functional, cell-based; conditions: A-375, 24 h
[7] = system: NCI-H446; test: Cytotoxicity in human NCI-H446 cells assessed as reduction in cell viability incubated for 24 hrs by MTT assay; format: functional, cell-based; conditions: NCI-H446, 24 h
[8] = Cytotoxicity in human SPC-A1 cells assessed as reduction in cell viability incubated for 24 hrs by MTT assay; format: functional, cell-based; conditions: SPCA1, 24 h
[9] = system: SMMC-7721; test: Cytotoxicity in human SMMC7721 cells assessed as reduction in cell viability incubated for 48 hrs by MTT assay; format: functional, cell-based; conditions: SMMC-7721, 48 h
[10] = system: MCF7; test: Cytotoxicity in human MCF7 cells assessed as reduction in cell viability incubated for 24 hrs by MTT assay; format: functional, cell-based; conditions: MCF7, 24 h
[11] = system: A549; test: Cytotoxicity in human A549 cells assessed as reduction in cell viability incubated for 24 hrs by MTT assay; format: functional, cell-based; conditions: A549, 24 h
[12] = system: MDA-MB-231; test: Cytotoxicity in human MDA-MB-231 cells assessed as reduction in cell viability incubated for 24 hrs by MTT assay; format: functional, cell-based; conditions: MDA-MB-231, 24 h
[13] = system: HL-60; test: Cytotoxicity in human HL60 cells assessed as reduction in cell viability incubated for 24 hrs by MTT assay; format: functional, cell-based; conditions: HL-60, 24 h
[14] = system: HL60/ADR; test: Cytotoxicity in human HL60/ADR cells assessed as reduction in cell viability incubated for 24 hrs by MTT assay; format: functional, cell-based
[15] = system: HepG2; test: Cytotoxicity in human HepG2 cells assessed as reduction in cell viability incubated for 72 hrs by CCK8 assay; format: functional, cell-based; conditions: HepG2, 72 h
[16] = system: A549; test: Cytotoxicity in human A549 cells assessed as reduction in cell viability incubated for 72 hrs by CCK8 assay; format: functional, cell-based; conditions: A549, 72 h
[17] = system: MCF7; test: Cytotoxicity in human MCF7 cells assessed as reduction in cell viability incubated for 72 hrs by CCK8 assay; format: functional, cell-based; conditions: MCF7, 72 h
[18] = system: HeLa; test: Cytotoxicity in human HeLa cells assessed as reduction in cell viability incubated for 72 hrs by CCK8 assay; format: functional, cell-based
[19] = system: MDA-MB-468; test: Cytotoxicity in human MDA-MB-468 cells assessed as reduction in cell viability incubated for 24 hrs by MTT assay; format: functional, cell-based; conditions: MDA-MB-468, 24 h
[20] = system: T47D; test: Cytotoxicity in human T47D cells assessed as reduction in cell viability incubated for 24 hrs by MTT assay; format: functional, cell-based
[21] = system: MCF-12A; test: Cytotoxicity in human MCF12A cells assessed as reduction in cell viability incubated for 24 hrs by MTT assay; format: functional, cell-based
[22] = system: MCF7; test: Cytotoxicity in human MCF7 cells assessed as reduction in cell viability incubated for 48 hrs by SRB assay; format: functional, cell-based; conditions: MCF7, 48 h
[23] = system: MDA-MB-231; test: Cytotoxicity in human MDA-MB-231 cells assessed as reduction in cell viability incubated for 48 hrs by SRB assay; format: functional; conditions: MDA-MB-231, 48 h
[24] = system: PC-3; test: Cytotoxicity in human PC3 cells assessed as reduction in cell viability incubated for 72 hrs by CCK8 assay; format: functional, cell-based; conditions: PC-3, 72 h
[25] = system: HeLa; test: Cytotoxicity in human HeLa cells assessed as reduction in cell viability incubated for 72 hrs by MTT assay; format: functional, cell-based
[26] = system: HT-29; test: Cytotoxicity in human HT-29 cells assessed as reduction in cell viability incubated for 72 hrs by MTT assay; format: functional, cell-based; conditions: HT-29, 72 h
[27] = system: MCF7; test: Cytotoxicity in human MCF7 cells assessed as reduction in cell viability incubated for 72 hrs by MTT assay; format: functional, cell-based; conditions: MCF7, 72 h

SMILES: CC(=O)O[C@H]1CC[C@]2(C)[C@H]3CC=C4[C@@H]5[C@@H](C)[C@H](C)CC[C@]5(C(=O)NCCCCC(C)N)CC[C@@]4(C)[C@]3(C)CC[C@H]2C1(C)C (stereo partly drawn)
- IC50 [1]: 5 µM
- IC50 [2]: 4.8 µM

SMILES: C[C@@H]1CC[C@]2(C(=O)O)CC[C@]3(C)C(=CC(=O)[C@@H]4[C@@]5(C)CC[C@H](O)[C@](C)(CO)[C@@H]5CC[C@]43C)[C@@H]2[C@]1(C)O
- IC50 [3]: 16.5 µM
- IC50 [4]: 8.26 µM
- IC50 [1]: 7.33 µM
- IC50 [5]: 18.7 µM
- IC50 [6]: 16.6 to 17.4 µM
- IC50 [7]: 11.4 µM
- IC50 [8]: 86 µM

SMILES: COC1=C(Br)C(=O)c2c([nH]c3c2C[C@]2(C)[C@H]4CC=C5[C@@H]6[C@@H](C)[C@H](C)CC[C@]6(C(=O)O)CC[C@@]5(C)[C@]4(C)CC[C@H]2C3(C)C)C1=O
- IC50 [4]: 1.6 µM
- IC50 [9]: 1.2 µM

SMILES: C[C@@H]1O[C@@H](O[C@H]2CC[C@@]3(C)[C@@H](CC[C@]4(C)[C@@H]3CC=C3[C@H]5CC(C)(C)CC[C@]5(C(=O)O)CC[C@]34C)[C@]2(C)CO)[C@H](O)[C@H](O)[C@H]1O[C@@H]1O[C@H](CO)[C@@H](O)[C@H](O)[C@H]1O
- IC50 [10]: 41.3 µM
- IC50 [11]: 17.8 µM

SMILES: COC(=O)[C@]12CCC(C)(C)C[C@H]1C1=CC(=O)[C@@H]3[C@@]4(C)CCC(=O)C(C)(C)[C@@H]4CC[C@@]3(C)[C@]1(C)CC2
- IC50 [12]: 33.2 µM
- IC50 [13]: 2.85 µM
- IC50 [14]: 7.54 µM

SMILES: COC(=O)C(C)NC(=O)[C@]12CC[C@@H](C)[C@H](C)[C@H]1C1=CC[C@@H]3[C@@]4(C)C[C@@H](O)[C@H](O)[C@@](C)(CO)[C@@H]4CC[C@@]3(C)[C@]1(C)CC2 (stereo partly drawn)
- IC50 [15]: 20.5 µM
- IC50 [16]: 21.8 µM
- IC50 [17]: 17.1 µM
- IC50 [18]: 19.2 µM

SMILES: COC(=O)[C@]12CCC(C)(C)C[C@H]1C1=CC(=O)[C@@H]3[C@@]4(C)CC/C(=N\O)C(C)(C)[C@@H]4CC[C@@]3(C)[C@]1(C)CC2
- IC50 [12]: 21.1 µM
- IC50 [10]: 3.22 µM
- IC50 [19]: 4.25 µM
- IC50 [20]: 10.1 µM
- IC50 [21]: 25.7 µM
- IC50 [13]: 3.72 µM
- IC50 [14]: 3.58 µM

SMILES: C[C@H]1[C@H](C)CC[C@]2(C(N)=O)CC[C@]3(C)C(=CC[C@@H]4[C@@]5(C)CC[C@H](OC(=O)CCC(=O)O)C(C)(C)[C@@H]5CC[C@]43C)[C@H]12
- IC50 [1]: 9.1 µM
- IC50 [2]: 44.6 µM

SMILES: CC1(C)CC[C@]2(C(=O)O)CC[C@]3(C)C(=CC[C@@H]4[C@@]5(C)CC[C@H](O)C(C)(C)[C@@H]5CC[C@]43C)[C@@H]2C1 [OLEANOLIC_ACID]
- IC50 [12]: > 50 µM
- IC50 [10]: 12.7 µM
- IC50 [19]: 38.1 µM
- IC50 [20]: 36.2 µM
- IC50 [21]: > 50 µM
- IC50 [13]: 14.8 µM
- IC50 [14]: 28.8 µM
- GI50 [22]: 10.3 µM
- GI50 [23]: 17.6 µM

SMILES: CC(=O)OC[C@@]1(C)[C@@H]2CC[C@]3(C)[C@H](CC=C4[C@@H]5[C@@H](C)[C@H](C)CC[C@]5(C(=O)O)CC[C@]43C)[C@@]2(C)C[C@@H](OC(C)=O)[C@@H]1OC(C)=O
- IC50 [15]: 10.2 µM
- IC50 [16]: 21.1 µM
- IC50 [18]: 24.2 µM
- IC50 [24]: 17.5 µM

SMILES: COC(=O)[C@]12CC[C@@H](C)[C@H](C)[C@H]1C1=CC(=O)[C@@H]3[C@@]4(C)C(C#N)=C[C@@](C)(COS(C)(=O)=O)[C@@H]4CC[C@@]3(C)[C@]1(C)CC2
- IC50 [25]: 7.27 µM
- IC50 [26]: 9.77 µM
- IC50 [27]: 19.5 µM

SMILES: CC(=O)OC[C@]1(C)[C@@H]2CC[C@]3(C)[C@H](C(=O)C=C4[C@H]5[C@](C(=O)OCC(=O)N/N=C/c6ccccc6)(CC[C@@H](C)[C@@]5(C)O)CC[C@]43C)[C@@]2(C)CC[C@@H]1OC(C)=O
- IC50 [6]: 3.1 µM
- IC50 [7]: 11.7 µM
- IC50 [8]: 8.6 µM
